From patent US20250011878A1, “METHOD TO DETECT RNA BIOMARKERS” (ITALFARMACO SPA, priority 2021, published 2025)

How the values were obtained:
[1] = test system: CT26 tumor cells; assay: CT26 tumor volume in BALB/c mice, responders and non-responders; assay type: in vivo; settings: CT26 s.c. in BALB/c mice, treatment day 10 to day 20; three groups of animals with different tumor reduction
Protocol: (§1) Adult BALB/c mice were injected s.c. with 1×10^6 CT26 tumor cells (diluted to 100 μl with phosphate buffered saline) and treated with anti-PD1 or ITF3756 when the tumor volume reached 75-100 mm^3, to explore the modulation of genes in the tumor microenvironment by RNAseq. Since ITF3756 acts on the PD-1/PD-L1 axis, this approach allows the identification of genes specific and common to both treatments. The overall schedule is described in Table 9.
Responders and non-responders were selected based on tumor volume at day 20. The volume of the tumor at the beginning of the treatments (day 10) was on average about 75 mm^3. Based on this value of tumor volume, we classified the animals according to the following criteria: • Animals with tumor volume lower or equal to 75 mm^3 were considered RESPONDERS (R) • Animals with tumor volume greater than 75 mm^3 were considered NON RESPONDERS (NR)

[2] = test system: tumor microenvironment of CT26-bearing animals; assay: Ex-vivo RNAseq gene expression in tumor microenvironment of CT26-bearing mice, responders vs non responders; design: species or system BALB/c mice; settings: RNAseq total counts
Protocol: as §1
RNA was extracted from flash frozen tumors using the Qiagen extraction kit and stored at −80° C. A paired-end sequencing was chosen, in which short reads are obtained from ends of DNA fragments for ultra-high-throughput sequencing. Prior to further analysis, a quality check was performed on the sequencing data. All samples contain sequences 75 nucleotides long (75 nt×2).
The RNA-Seq analysis pipeline involved several steps: • 1. Quality Control of the reads, • 2. Removal of low quality reads • 3. Reads spliced Alignment • 4. Transcriptome expression quantification analysis
The sample was mapped on reference Mus musculus genome (mm10) using the bioinformatics tool STAR (version 2.4.0d), with the standard parameters for paired reads. The reference track was the assembly mm10 obtained from Refseq. […] Average mapping ratio was above 93% and Ribosomal content was below 1% for all samples.
The quantification of transcripts expressed for each sequenced sample was performed using Cufflinks. The units of measurement used in Cufflinks is FPKM (Fragments Per Kilobase of transcript per Million mapped reads) and it is meant to be a measure of relative abundance of a transcript/gene in a RNA pool. It is not intended to be used directly for Differential Expression but it is meant to be human readable, and takes into account main technical confounding factors such as millions of reads and gene length.
Responders and non-responders were selected based on tumor volume at day 20. […]
Statistical significance was determined by unpaired t-test using GraphPad software (version 9), p-values […] were considered significant.

For `O=C(NO)c1ccc(Cn2nnnc2-c2cccs2)cc1` [ITF3756, N-hydroxy-4-((5-(thiophen-2-yl)-1 H-tetrazol-1-yl)methyl)benzamide], the “tumor response (tumor volume)” value [1] was “heterogeneous response”, the “IRF6 expression in the tumor microenvironment, responders compared to non responders” value ([2]; p<0.1) was “striking expression upregulation” and the “CD40 expression in the tumor microenvironment, responders compared to non-responder mice” value ([2]; unpaired t-test) was “statistically significant upregulation”. The “MMP9 expression in the tumor microenvironment, responders compared to non responders” value ([2]; unpaired t-test) was “statistically significant reduction”.
